Measured values from paper PMC10017027, “Design and Synthesis of Novel HIV-1 NNRTIs with Bicyclic Cores and with Improved Physicochemical Properties” (Journal of Medicinal Chemistry, 2023).
pEC50: −log10 of the molar value. In brackets after ≈: the same amount, converted by molar mass. Where two headings read alike, the source gives them in different places.

Key:
in vitro = assay type: cell-based; conditions: human
Procedure: (§1) The prepared compounds were tested for their anti-HIV-1 activity (Table 1). A viral cytopathic effect assay in MT-4 cells with HIV-1 IIIB virus was used to determine compound potency (EC50, 50% cell viability) in protecting virus induced cell killing. Compound cytotoxicity was assessed in MT-4 cells in the absence of virus (CC50, 50% cytotoxicity). […] ETV contains bromo and amino substitutions on the DAPY core. […] Likely, with the smaller cyano arm I in 1, 3, and 5, the cores could be further elaborated to optimize the compound position in the pocket and to improve potency.
(§2) Compounds were tested in a high-throughput 384-well assay format for their ability to inhibit the virus replication-induced cytopathic effect in MT-4 cell cultures acutely infected with HIV-1 (IIIB strain), HXB2, HXB2-K103N, and HXB2-Y181C. Compounds were serially diluted (1:3) in DMSO on 384-well polypropylene plates and further diluted 200-fold into complete RPMI media (10% FBS, 1% P/S) using Biotek Micro Flow and an Agilent ECHO acoustic dispenser. Each plate contained up to eight test compounds, with negative (no drug control) and 5 μM AZT positive controls. MT-4 cells were further diluted in complete RPMI media and added to each plate using a Micro-Flo dispenser. After five days of incubation in a humidified and temperature-controlled incubator (37 °C), Cell Titer Glo (Promega) was added to the assay plates to quantify the amount of […]. EC50 and CC50 values were defined as the compound concentration that causes a 50% decrease in luminescence signal and were calculated using a sigmoidal dose-response model to generate curve fits.

HIV-1 (IIIB strain) = experiment: MT-4 antiviral cytopathic effect assay, HIV-1 IIIB; assay type: cell-based; conditions: for pEC50: Human immunodeficiency virus 1, IIIB, MT4, protects 50% of MT-4 cells against HIV-1-induced cell killing, HIV-1 IIIB, WT, read-out: EC50 MT4
Procedure: (§3) The prepared compounds were tested for their anti-HIV-1 activity (Table 1). A viral cytopathic effect assay in MT-4 cells with HIV-1 IIIB virus was used to determine compound potency (EC50, 50% cell viability) in protecting virus induced cell killing. Compound cytotoxicity was assessed in MT-4 cells in the absence of virus (CC50, 50% cytotoxicity).
as §2

[1] = Solubility assessment, shake-flask method; assay type: physicochemical; conditions: for solubility: shake-flask; for HCl sol / PBS sol: supplement CSV
Procedure: Compound solubility was measured at Analiza (Cleveland, OH) by the standard shake-flask method at pH 1.2 and 7.4 and quantitated by HPLC-UV.

HIV-1 HXB2 Y181C variant = experiment: MT-4 antiviral cytopathic effect assay, HXB2-Y181C; assay type: cell-based; conditions: for pEC50: Human immunodeficiency virus 1, HXB2, read-out: EC50 Y181C
Procedure: as §1, §2

HIV-1 HXB2 K103N variant = experiment: MT-4 antiviral cytopathic effect assay, HXB2-K103N; assay type: cell-based; conditions: for pEC50: Human immunodeficiency virus 1, HXB2, read-out: EC50 K103N
Procedure: as §1, §2

[2] = Predicted clearance in human liver microsomes; assay type: in vitro ADME; conditions: pH 7.4, 1 μM compound, read-out: HLM CLint, pred (converted)
Procedure: Next, microsome stability was profiled in purified human liver microsomes (HLM).
Metabolic stability of compounds was assessed using HLM (Corning cat. 457117).[52] In this assay, 10 nL compounds at a concentration of 1 mM in 100% DMSO are dispensed into 384-well polypropylene plates using the Echo 550 acoustic liquid dispenser (Labcyte). Each plate contains 384 wells with a single test compound in each well.
A solution of HLM at 2 mg/mL in 100 mM K2HPO4/KH2PO4 pH 7.4 with 0.0225 mg/mL Alamethicin from Trichoderma viride (Sigma-Aldrich cat. A4665-10MG) was incubated on ice for 15 min. 5 μL of this solution was added to individual wells following 15 min incubation at room temperature; and supplemented with 5 μL NADPH Regenerating Solution of cofactors (Corning Gentest UGT Reaction Mix solutions A and B, cat. 451200 and 451220) containing 100 mM K2HPO4/KH2PO4 pH 7.4, 2.6 mM NADP^+, 6.6 mM glucose-6-phosphate, 6.6 mM MgCl2, 0.8 U/mL glucose-6-phosphate dehydrogenase, 0.1 mM sodium citrate, and 6.8 mM uridine diphosphate-glucuronic acid. The final concentration of analyte compounds at the beginning of the reactions was 1 μM. The reactions were incubated at 37 °C, and time points of 0, 5, 15, 30, 40, 50, 60, and 70 min were collected for further analysis. Background data were collected using reactions without analyte compounds.
Upon collection of the reaction time points, samples were quenched at the set time points with 30 μL of a solution of 72% acetonitrile, 8% methanol, 0.1% formic acid, 19.9% water, and labetalol as an internal standard (IS) at a concentration of 650 nM. Reaction plates were span in a centrifuge at a speed of 4000 rcf for 30 min and 4 °C, following a dilution of the 10 μL quenched reaction into 40 μL de-ionized water, yielding assay plates.
Samples were analyzed by a solid-phase extraction coupled with a quadrupole time-of-flight mass spectrometer, using an Agilent QToF 6530 RapidFire 360 system with C4 type A solid state cartridges. Analysis was performed in either positive or negative ionization modes. Mobile phases contained 0.1% formic acid in water for loading analytes onto solid state extraction cartridges, and 0.1% formic acid in acetonitrile for elution into the mass spectrometer in positive ionization mode, or 0.1% acetic acid in water for loading and 0.1% acetic acid in acetonitrile for extraction in negative ionization mode. Peak-area ratios of integrated counts for individual compounds to IS were plotted as a semi-logarithmic chart of log versus time. Initial, linear portion of decay was fitted to a linear regression equation to derive the half-time of a compound decay.
Pharmacological parameters for an analyte compound metabolism were calculated using the equations described in Table S2.
Table S2. Pharmacological parameters for an analyte compound metabolism were
calculated using the following equations:
Intrinsic Clearance (in Cl = ln 2
int, in vitro T1/2 ∗ Conc
Intrinsic Clearance Cl = Clint, in vitro ∗ Liver Mass ∗ Yield
Predicted Hepatic Cl = Clint ∗ QH
QH (Hepatic Blood Flow) = 1.3 L/hr/kg

HIV-1 HXB2 = experiment: MT-4 antiviral cytopathic effect assay, HXB2 wild-type virus; assay type: cell-based; conditions: Human immunodeficiency virus 1, MT4; HIV-1 HXB2 wild-type, MT-4 cells; read-out: EC50 HXB2
Procedure: as §3, §2

[3] = MDCK permeability assay (A to B); assay type: in vitro ADME, Canine; conditions: dog, MDCK
From the text: Compounds were further tested in a Madin–Darby Canine Kidney (MDCK) assay to evaluate their potential for oral absorption. […] Additionally, there was no trend for better permeability when comparing arm I versus arm II when matched with the same core. The size of the B ring had the greatest influence on Papp with the trend being five-membered > six-membered > seven-membered rings (Table 1).
cMdr1-KO cells were maintained in Dulbecco’s modified Eagle’s medium (DMEM) with sodium pyruvate and GlutaMax, supplemented with 1% Pen/Strep and 10% fetal bovine serum in an incubator set at 37 °C, 90% humidity, and 5% CO2. MDCKII- cMdr1-KO cells were grown to confluence over 3 days on 96-well PET plates with 1 μm pore size, polyester membrane (Corning 3392). Experiments were run using HBSS donor buffer from Invitrogen containing an additional 10 mM HEPES, 15 mM glucose, and 0.1% BSA adjusted to pH 7.4. The receiver well had HBSS buffer supplemented with 1% BSA, 10 mM HEPES, 15 mM glucose, and the pH was adjusted to 7.4. TEER values were read to test membrane integrity at the beginning of the assay. The experiment was started by the addition of dosing solutions containing test compounds. Samples were taken from the donor compartment at 0/120 min and from the receiver compartment at 120 min. Each compound was tested in two separate replicate wells. All samples were immediately collected in a 72:8:20 MeCN/MeOH:H2O mix to precipitate protein and stabilize the test compounds. Cells were dosed on the apical side to determine forward (A to B) permeability. To test for non-specific binding and compound instability, the total amount of drug was quantified at the end of the experiment and compared to the material present in the original dosing solution as a percentage of recovery. Samples were analyzed by RF-QToF.

[4] = preliminary biological data, in words
[5] = HCl, pH 1.2, read-out: solubility HCl
[6] = phosphate-buffered saline, pH 7.4, read-out: solubility PBS
[7] = fold change: ratio of potency against HXB2 Y181C and parental HXB2
[8] = supplement CSV, fold change vs HXB2
[9] = fold change: ratio of potency against HXB2 K103N and parental HXB2
[10] = apparent permeability coefficient, A to B, pH 7.4

SMILES	CC50 at 5 days (in vitro) [µM]	pEC50 (HIV-1 (IIIB strain))	CC50 at 120 h (in vitro) [µM]	solubility [1, 5] [µM]	solubility [1, 6] [µM]	HCl sol [1] [µM]	PBS sol [1] [µM]	pEC50 (HIV-1 HXB2 Y181C variant)	Y181C (FC) (HIV-1 HXB2 Y181C variant; [7])	Y181C (FC) (HIV-1 HXB2 Y181C variant; [8])	CLint scaled at 1.167 h, 1 µM [2] [mL/min/kg]	pEC50 (HIV-1 HXB2)	pEC50 (HIV-1 HXB2 K103N variant)	K103N (FC) (HIV-1 HXB2 K103N variant; [9])	K103N (FC) (HIV-1 HXB2 K103N variant; [8])	Papp A→B at 120 min ([3]; supplement CSV) [×10⁻⁶ cm/s]	Papp A→B at 120 min [3, 10] [×10⁻⁶ cm/s]	other results
Cc1cc(C=O)cc(C)c1-n1c(=O)[nH]c2cnc(Nc3ccc(C#N)cc3)nc21 [Compound 40, 4-{[9-(4-Formyl-2,6-dimethylphenyl)-8-oxo-8,9-dihydro-7H-purin-2-yl]amino}benzonitrile]	> 50	6.68	–	–	–	–	–	–	–	–	–	–	–	–	–	–	–	–
Cc1cc(Br)cc(C)c1N1CC(=O)Nc2cnc(Nc3ccc(C#N)cc3)nc21 [Compound 14, 4-{[8-(4-Bromo-2,6-dimethylphenyl)-6-oxo-5,6,7,8-tetrahydropteridin-2-yl]amino}benzonitrile]	–	–	–	–	–	–	–	–	–	–	–	–	–	–	–	–	–	activity against the WT virus (HIV-1 (IIIB strain); [4]): low nanomolar activity; aqueous solubility ([1]; preliminary data, in words): significantly improved; potency against Y181C mutated strain (HIV-1 HXB2 Y181C variant; [4]): high potency; potency against K103N mutated strain (HIV-1 HXB2 K103N variant; [4]): high potency
Cc1cc(C#N)cc(C)c1-n1c(=O)[nH]c2cnc(Nc3ccc(C#N)cc3)nc21 [Compound 1, 4-{2-[(4-Cyanophenyl)amino]-8-oxo-8,9-dihydro-7H-purin-9-yl}-3,5-dimethylbenzonitrile]	–	7.21	43.7	73.2 (≈ 27.9 µg/mL)	6.6 (≈ 2.52 µg/mL)	73.2	6.6	6.62	3.3	3.3	8.83	7.13	6.64	3.1	3.1	4.9	4.9	–
Cc1cc(C#N)cc(C)c1N1CCC(=O)Nc2cnc(Nc3ccc(C#N)cc3)nc21 [Compound 5, 4-{2-[(4-Cyanophenyl)amino]-6-oxo-5H,6H,7H,8H,9H-pyrimido[4,5-b][1,4]diazepin-9-yl}-3,5-dimethylbenzonitrile]	> 50	7.36	–	87.3 (≈ 35.7 µg/mL)	1.4 (≈ 0.573 µg/mL)	87.3	1.4	6.70	6.7	6.7	15.5	7.53	7.15	2.4	2.4	3.5	3.5	–
Cc1cc(C=O)cc(C)c1N1CCC(=O)Nc2cnc(Nc3ccc(C#N)cc3)nc21 [Compound 42, 4-{[9-(4-Formyl-2,6-dimethylphenyl)-6-oxo-5H,6H,7H,8H,9H-pyrimido[4,5-b][1,4]diazepin-2-yl]amino}benzonitrile]	–	7.03	5	–	–	–	–	–	–	–	–	–	–	–	–	–	–	–
